Measurements published in US11390621B2, “Chiral indole compounds and their use” (ARIAGEN, INC., priority 2019, dated 2022).
“And” between values parts separate entries of the source, which are not always exact repeats. Equal values may be shown once. Read-outs that look alike come from different tables or passages of the source.

Experiments:
[1] = Hepatocyte intrinsic clearance assay (metabolic stability), rat hepatocytes; format: in vitro ADME; conditions: rat, cryopreserved hepatocytes, Rat Hepatocytes, 1 μM test compound
Summary of the method: (§1)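 Cryopreserved pooled hepatocytes (1×10^6 cells/mL final) incubated with 1 μM compound at 37 °C, 5% CO2; samples at 0–120 min quenched in acetonitrile, analysed by LC-MS in duplicate. t1/2 and CLint from ln(% remaining) vs time slope; CLH via well-stirred liver model (fu=1) and EH derived from it.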

[2] = system: rat hepatocytes; test: as above; format: in vitro ADME
Summary of the method: as §1

[3] = system: human hepatocytes; test: Hepatocyte intrinsic clearance assay (metabolic stability), human hepatocytes; format: in vitro ADME; conditions: Human Hepatocytes; well stirred liver model, fu=1
Summary of the method: as §1

[4] = as above; format: in vitro ADME; conditions: male, human, cryopreserved pooled hepatocytes, Human Hepatocytes, 1 μM test compound
Summary of the method: as §1

[5] = In vivo pharmacokinetic studies in rats; set-up: species or system SD rats; conditions: rats; for AUC(0-t): read-out: AUClast
Summary of the method: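 Mice and rats (N=3/group) dosed IV at 2 mg/kg in DMSO or PO at 10, 30 or 40 mg/kg in PEG400/Tween 80 50/50; PEG400/Kolliphor HS15/oleic acid 45/45/10 used for one repeat-dose rat study. Repeat dosing in rats was PO 10 mg/kg QD for 5 days. Plasma sampled pre-dose to 24 h post-dose, measured by HPLC.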

[6] = SD, rat, plasma, po, 10 mg/kg, PO 10 mg/kg repeat dose, Day 1, Mean of 3 animals
[7] = Sprague-Dawley (SD), rat, plasma, po, 10 mg/kg, PO 10 mg/kg repeat dose, Day 1, individual animals (ID 4, 5, 6)
[8] = Sprague-Dawley (SD), rat, plasma, po, 10 mg/kg, PO 10 mg/kg repeat dose, Day 5, Mean of 3 animals
[9] = PO 10 mg/kg repeat dose, Day 1, individual animals (ID 4, 5, 6), 10 mg/kg
[10] = PO 10 mg/kg repeat dose, Day 5, individual animals (ID 4, 5, 6), 10 mg/kg

For `CC(C)(N)c1csc(C(=O)c2c[nH]c3cc(F)ccc23)n1` [ARI-226, (4-(2-aminopropan-2-yl)thiazol-2-yl)(6-fluoro-1H-indol-3-yl)methanone], the half-life at 1 μM [1] was 1.8 h, the hepatocyte CLint at 1 μM [1] was 6.54 µL/min/1e6 cells and the “EH (hepatic extraction ratio)” value ([2]; Rat Hepatocytes, well stirred liver model, fu=1) was 30.4%. For the same compound, the “CLint lower than that of ARI-164 (fold)” value ([2]; rat hepatocytes) was “slightly lower”, the “EH (hepatic extraction ratio)” value [3] was 15.8% and the half-life at 1 μM [4] was 3 h. The hepatocyte CLint at 1 μM [4] was 3.85 µL/min/1e6 cells, the AUC(0-inf) [5, 6] was 832 ng·h/mL and the Cmax at 1 day [5, 6] was 112 ng/mL. It also gave an MRT inf at 1 day [5, 6] of 5.81 h, a half-life at 1 day [5, 6] of 2.28 h and an AUC(0-t) [5, 6] of 831 ng·h/mL. The Tmax at 1 day ([5]; SD, rat, plasma, po, 10 mg/kg, PO 10 mg/kg repeat dose, Day 1, Mean of 3 animals, read-out: Tmax) was 4 h, the Tmax at 5 days ([5]; SD, rat, plasma, po, 10 mg/kg, PO 10 mg/kg repeat dose, Day 5, individual animals (ID 4, 5, 6)) was 1 h and the MRT inf [5, 7] was 5.23 h. The half-life [5, 7] was 2.55 h, the Tmax ([5]; Sprague-Dawley (SD), rat, plasma, po, 10 mg/kg, PO 10 mg/kg repeat dose, Day 1, individual animals (ID 4, 5, 6), read-out: Tmax) was 4 h and the AUC(0-inf) [5, 8] was 38.7 ng·h/mL. It also gave an MRT inf [5, 8] of 3.01 h, a half-life [5, 8] of 1.64 h and an AUC(0-t) [5, 8] of 35.7 ng·h/mL. It also gave a Cmax ([5]; Sprague-Dawley (SD), rat, plasma, po, 10 mg/kg, PO 10 mg/kg repeat dose, Day 5, Mean of 3 animals, read-out: Cmax) of 9.78 ng/mL, a Tmax ([5]; Sprague-Dawley (SD), rat, plasma, po, 10 mg/kg, PO 10 mg/kg repeat dose, Day 5, Mean of 3 animals, read-out: Tmax) of 1.67 h and a half-life ([5]; Sprague-Dawley (SD), rat, plasma, po, 10 mg/kg, PO 10 mg/kg repeat dose, Day 5, individual animals (ID 4, 5, 6)) of 1.05 h. The “behaviour of exposure after 5 days of repeat dosing (in words)” value ([5]; 10 mg/kg PO QD for 5 days) was “increased elimination”, the MRTIast ([5]; PO 10 mg/kg repeat dose, Day 1, Mean of 3 animals) was 5.78 h and the AUCinf [5, 9] was 1280 ng·h/mL and 253 ng·h/mL and 963 ng·h/mL. The AUClast [5, 9] was 1280 ng·h/mL and 253 ng·h/mL and 963 ng·h/mL, the Cmax [5, 9] was 188 ng/mL and 28.4 ng/mL and 119 ng/mL and the MRTIast [5, 9] was 5.18 h and 5.96 h and 6.21 h. For the same compound, the MRTinf [5, 9] was 5.99 h and 6.22 h, the T1/2 [5, 9] was 2.39 h and 1.89 h and the MRTIast ([5]; PO 10 mg/kg repeat dose, Day 5, Mean of 3 animals) was 2.49 h. The AUCinf [5, 10] was 14.2 ng·h/mL and 54.7 ng·h/mL and 47.3 ng·h/mL, the AUClast [5, 10] was 13.0 ng·h/mL and 50.9 ng·h/mL and 43.2 ng·h/mL and the Cmax [5, 10] was 5.33 ng/mL and 13.2 ng/mL and 10.8 ng/mL. The MRTIast [5, 10] was 1.56 h and 2.76 h and 3.15 h, the MRTinf [5, 10] was 1.89 h and 3.31 h and 3.82 h and the T1/2 [5, 10] was 1.87 h and 2.01 h. It also gave a Tmax [5, 10] of 2 h.
